The values below come from patent US11426420B2, “Inhibitors of short-chain dehydrogenase activity for treating coronary disorders” (CASE WESTERN RESERVE UNIVERSITY, priority 2017, dated 2022).

The nature of data set [1]: chemical stability in aqueous solutions. As to conditions: over broad pH range. The format is physicochemical.
A short description of data set [2]: stability on incubation with rat liver extracts. The format is in vitro ADME.
Data set [3] has as its system mice. The data set is described as follows: toxicity after IP injection into mice.
Data set [4] can be described thus: stability on incubation with human liver extracts. The data set is classed as in vitro ADME.
Data set [5] has as its system PGE2 production by cell lines. The data set is described as follows: PGE2 production by cell lines. The data set is classed as cell-based.
For data set [6], the target named is T1, recombinant 15-PGDH (Homo sapiens, UniProt P15428).
T1 sequence (P15428 1-266): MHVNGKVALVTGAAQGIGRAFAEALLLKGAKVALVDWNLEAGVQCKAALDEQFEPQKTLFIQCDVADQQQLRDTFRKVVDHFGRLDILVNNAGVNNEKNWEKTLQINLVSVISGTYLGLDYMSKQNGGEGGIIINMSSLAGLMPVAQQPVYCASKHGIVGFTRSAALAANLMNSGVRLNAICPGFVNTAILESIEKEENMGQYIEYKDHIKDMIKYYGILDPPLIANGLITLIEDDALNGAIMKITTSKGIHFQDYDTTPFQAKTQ
The data set is described as follows: inhibition of recombinant 15-PGDH. The data set is classed as biochemical.

Data set [7] can be described thus: stability on incubation with mouse liver extracts. The format is in vitro ADME.
Data set [8] in a line: stability on incubation with hepatocyte cell lines. The format is in vitro ADME.
Data set [9] in a line: stability on incubation with hepatocyte extracts. The data set is classed as in vitro ADME.
Data set [10] addresses T2, cardiac 15-PGDH (Mus musculus, UniProt Q8VCC1).
T2 construct: from tissue; host or cells: mouse heart (male C57bl6J mice are named for the study design)
T2 sequence (Q8VCC1 1-269): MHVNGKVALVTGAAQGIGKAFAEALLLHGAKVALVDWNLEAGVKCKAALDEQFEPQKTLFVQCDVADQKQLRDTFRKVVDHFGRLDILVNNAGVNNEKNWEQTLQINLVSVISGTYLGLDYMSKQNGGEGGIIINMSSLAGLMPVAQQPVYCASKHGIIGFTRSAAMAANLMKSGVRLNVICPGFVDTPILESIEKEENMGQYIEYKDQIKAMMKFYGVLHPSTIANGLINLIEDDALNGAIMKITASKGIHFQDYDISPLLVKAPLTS
As to the kind of experiment: cardiac 15-PGDH activity and cardiac PGE2 after oral dosing of mice. The data set is classed as in vivo.

Data set [11] concerns doxorubicin induced cardiomyopathy. As to the kind of experiment: doxorubicin induced cardiomyopathy in mice, one cycle (Set A), echocardiography. The format is in vivo, male C57bl6J mice. The method, then: FIG. 1 illustrates schematically the design of a study in which male C57bl6J mice received 15 mpk cumulative dose of doxorubicin in 7 doses of 2.15 mpk administered daily over study days 1-7. A 15-PGDH inhibitor, (+) SW033291, was administered by oral gavage at a dose of 25 mpk twice daily over study days 1-14, as a solution in a vehicle of 10% ethanol and 90% soybean oil. Cardiac ejection fraction was determined by echocardiography on study days 14 and 28.
FIG. 2 illustrates a graph showing cardiac ejection fraction at study day 1, at the start of the experiment, at study day 14 and at study day 28. Black bars show measurement in control mice receiving either oral saline or oral vehicle. Blue bars show results in doxorubicin treated mice receiving oral vehicle. Red bars show results in doxorubicin treated mice also receiving (+) SW033291. Doxorubicin treated mice receiving oral vehicle (blue bars) show a 10% decrease in ejection fraction on day 14 and day 28 as compared to non-doxorubicin treated control mice receiving vehicle only for 14 days. In contrast, mice treated with both doxorubicin and (+) SW033291 only a 2% (day 14) or 1.5% (day 28) decrease in ejection fraction. The difference in ejection fraction in doxorubicin treated mice receiving or not receiving (+) SW033291 was statiscally significant (P<0.05) on both days 14 and 28.

Data set [12] has the same test system. As to the kind of experiment: doxorubicin induced cardiomyopathy in mice, 2 consecutive cycles of doxorubicin (Set B). The format is in vivo.
Data set [13] relates to cardiac myocytes. The data set is described as follows: DNA damage in cardiac myocytes, gamma-H2AX immunostaining. The format is in vivo. The conditions noted are these: doxorubicin treated mice.
[14] abbreviates: day 42, after two cycles of doxorubicin, versus vehicle control.

Take `CCCC[S+]([O-])c1sc2nc(-c3nccs3)cc(-c3cnc(C)n3C)c2c1N` (stereo not shown) [formula (X)]: in data set [1], the “chemical stability in aqueous solutions” value is “chemically stable”. In addition, the “chemical stability when incubated with liver extracts” value in data set [2], in data set [4] and in [7] was “chemically stable” throughout. For the same molecule, in data set [3] (IP into mice at 50 mg/kg body weight), the “immediate toxicity over 24 hours” value was “no immediate toxicity”. In addition, the “concentration at which PGE2 production by cell lines is increased” value in [5] came to 20 nM. Also, in data set [6], the “concentration at which recombinant 15-PGDH is inhibited” value came to 3 nM.
As for `CCCC[S+]([O-])c1sc2nc(-c3cccs3)cc(-c3ccccc3)c2c1N` (stereo not shown) [formula (IX)], in data set [1], the “chemical stability in aqueous solutions” value is “chemically stable”. Besides, the toxicity result in [3] (IP into mice at 0.3 μmole/per mouse twice daily for 21 days) is given as “no toxicity”. In addition, the “immediate toxicity over 24 hours” value in [3] (IP into mice at 0.6 μmole/per mouse) and in data set [3] (IP into mice at 1.2 μmole/per mouse) was “no immediate toxicity” throughout. Also, in [8], the “chemical stability when incubated with hepatocyte cell lines” value is on record as “chemically stable”. In addition, the “chemical stability when incubated with hepatocyte extracts” value in data set [9] was “chemically stable”. For the same molecule, in data set [5], the “PGE2 production by cell lines” value is “increase PGE2 production”.
`CCCC[S+]([O-])c1sc2nc(-c3cccs3)cc(-c3ccccc3)c2c1N` (single isomer, unassigned; (+)) [(+) SW033291]: the “inhibition of activity of cardiac 15-PGDH” value in data set [10] (25 mpk oral, starting at 30 minutes, persisting for 3 hours after administration) is reported as “approximately 80%”. In data set [10] (6 hours after drug treatment), the “cardiac PGE2” value was “increased cardiac PGE2”. The “ejection fraction (EF %), extended follow-up” value in [11] (Set A, follow-up to day 56) is reported as “maintenance of improvement in ejection fraction”. In data set [11] (day 14, doxorubicin treated mice, 25 mpk oral gavage twice daily days 1-14), the “decrease in ejection fraction” value is reported as 2%. Also, the “decrease in ejection fraction” value in data set [11] (day 28, doxorubicin treated mice, 25 mpk oral gavage twice daily days 1-14) turned out to be 1.5%. The “prevention of doxorubicin induced cardiomyopathy” value in [11] (mice) was “prevented doxorubicin induced cardiomyopathy”. Besides, the “cardiac contractility, echocardiogram” value in data set [11] (study day 14, doxorubicin treated mice, versus oral vehicle) is given as “markedly greater cardiac contractility”. The ejection fraction result in [12] (day 14, following the first cycle of doxorubicin) is recorded as “improvement of ejection fraction”. For the same molecule, in data set [12] (setting [14]), the “atrial natriuretic factor, real-time PCR in cardiac tissue” value is listed as “lower levels of atrial natriuretic factor”; the “expression of connective tissue growth factor, real-time PCR in cardiac tissue” value is listed as “lower levels of expression of connective tissue growth factor”; the lung weight entry is listed as “lesser lung weight”; the ventricular weight result is recorded as “lesser ventricular weight”. Further, in data set [12] (day 42, after two cycles of doxorubicin, versus vehicle treated mice), the total body weight entry was “greater total body weight”. Moreover, in data set [12] (day 42, following the second cycle of doxorubicin), the ejection fraction entry is given as “improvement of ejection fraction”.
For the molecule `COc1cccc2c1C(=O)c1c(O)c3c(c(O)c1C2=O)C[C@@](O)(C(=O)CO)C[C@@H]3O[C@H]1C[C@H](N)[C@H](O)[C@H](C)O1` [doxorubicin, reference compound], the “decrease in ejection fraction” value was determined as 10% in data set [11] (day 14, doxorubicin 15 mpk cumulative plus oral vehicle, compared to non-doxorubicin treated control mice) and 10% in data set [11] (day 28, doxorubicin 15 mpk cumulative plus oral vehicle, compared to non-doxorubicin treated control mice). In addition, the “DNA damage in cardiac myocytes, gamma-H2AX immunostaining” value in data set [13] was “induction of DNA damage”.
